One assay concerns the target T1, Mouse AhR (Mus musculus, UniProt P30561).
T1 sequence (P30561 1-848): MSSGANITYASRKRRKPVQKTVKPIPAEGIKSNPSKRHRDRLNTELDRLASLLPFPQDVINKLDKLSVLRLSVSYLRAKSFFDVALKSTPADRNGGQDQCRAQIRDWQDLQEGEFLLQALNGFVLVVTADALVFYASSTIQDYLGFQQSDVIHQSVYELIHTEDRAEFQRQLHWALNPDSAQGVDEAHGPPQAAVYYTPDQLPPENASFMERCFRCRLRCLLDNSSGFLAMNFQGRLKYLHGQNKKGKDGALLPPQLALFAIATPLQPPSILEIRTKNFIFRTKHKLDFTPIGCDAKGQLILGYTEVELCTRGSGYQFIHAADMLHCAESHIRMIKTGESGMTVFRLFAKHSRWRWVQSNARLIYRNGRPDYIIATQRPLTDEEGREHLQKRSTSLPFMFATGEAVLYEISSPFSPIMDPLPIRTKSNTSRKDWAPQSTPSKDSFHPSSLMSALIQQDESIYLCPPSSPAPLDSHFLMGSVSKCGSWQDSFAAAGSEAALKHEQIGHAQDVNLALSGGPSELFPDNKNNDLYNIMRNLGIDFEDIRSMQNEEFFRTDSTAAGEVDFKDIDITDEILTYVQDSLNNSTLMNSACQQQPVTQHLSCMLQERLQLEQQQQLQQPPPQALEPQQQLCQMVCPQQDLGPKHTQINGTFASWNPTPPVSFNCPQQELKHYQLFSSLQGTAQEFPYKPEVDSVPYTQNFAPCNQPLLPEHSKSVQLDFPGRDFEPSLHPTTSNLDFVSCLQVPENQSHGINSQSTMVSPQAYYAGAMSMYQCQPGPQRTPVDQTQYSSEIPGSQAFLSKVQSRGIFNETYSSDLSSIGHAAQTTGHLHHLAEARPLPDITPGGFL
In words: Transactivation assay in mouse cell line (in vitro assay 2: antagonism). Format: cell-based. The conditions noted are these: Hepa 1c1c7 cells, AHR inducible (DRE) firefly luciferase reporter, 200 μM kynurenic acid, 20 hours. The protocol: Transactivation Assay in Mouse Cell Line (In Vitro Assay 2)
Transactivation assay was carried out in Hepa 1c1c7 cells (ATCC #CRL-2026) endogenously expressing AHR. In addition the cells were stably transfected with an AHR inducible firefly luciferase reporter gene construct that carried AHR-binding sites (DRE) in its promoter. Kynurenic acid is an endogenous AHR activating ligand and was used to prestimulate test cells prior to testing the antagonistic properties of compounds.
In Vitro Assay 2: Antagonism in Mouse Cell Line
Firefly luciferase activity was determined by the SteadyGlo Luciferase Assay System (Promega, #E2550).
Background: Reporter assays use an easily measured gene product as a stand-in for the process of interest.

A further assay addresses T2, Human AhR (Homo sapiens, UniProt P35869).
T2 construct: host or cells: U87 glioblastoma cells, stably transfected with DRE-driven firefly luciferase and constitutive renilla reporter constructs
T2 sequence (P35869 11-848): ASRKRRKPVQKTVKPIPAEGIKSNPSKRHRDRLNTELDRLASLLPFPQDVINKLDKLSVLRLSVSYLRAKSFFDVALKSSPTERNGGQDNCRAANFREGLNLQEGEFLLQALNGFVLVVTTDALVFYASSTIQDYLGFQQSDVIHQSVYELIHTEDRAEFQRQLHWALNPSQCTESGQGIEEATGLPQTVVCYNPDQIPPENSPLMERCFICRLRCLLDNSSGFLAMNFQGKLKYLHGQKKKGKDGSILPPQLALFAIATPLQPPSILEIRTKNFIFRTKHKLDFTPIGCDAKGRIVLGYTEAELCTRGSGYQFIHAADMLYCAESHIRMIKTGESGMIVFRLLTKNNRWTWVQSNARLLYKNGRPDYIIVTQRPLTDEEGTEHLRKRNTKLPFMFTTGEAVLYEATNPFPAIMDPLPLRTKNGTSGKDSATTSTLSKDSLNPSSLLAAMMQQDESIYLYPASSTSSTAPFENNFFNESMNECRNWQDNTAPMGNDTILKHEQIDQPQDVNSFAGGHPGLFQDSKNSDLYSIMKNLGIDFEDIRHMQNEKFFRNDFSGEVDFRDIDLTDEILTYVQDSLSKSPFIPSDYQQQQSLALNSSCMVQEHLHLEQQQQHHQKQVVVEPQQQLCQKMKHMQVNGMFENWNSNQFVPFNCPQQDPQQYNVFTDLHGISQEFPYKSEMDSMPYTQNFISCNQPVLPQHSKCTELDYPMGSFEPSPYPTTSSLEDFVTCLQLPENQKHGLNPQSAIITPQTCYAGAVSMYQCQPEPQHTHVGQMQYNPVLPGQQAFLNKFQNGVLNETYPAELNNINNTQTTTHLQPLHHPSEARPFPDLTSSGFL
In words: Transactivation assay in human cell line (in vitro assay 1: antagonism). In kind it is cell-based. The following applies: U87 glioblastoma cells, AHR inducible (DRE) firefly luciferase reporter, 150 μM kynurenic acid, 20 hours. The protocol:
Transactivation Assay in Human Cell Line (In Vitro Assay 1)
Transactivation assay was carried out in U87 glioblastoma cells (ATCC) endogenously expressing AHR. In addition the cells were stably transfected with an AHR inducible firefly luciferase reporter gene construct that carried AHR-binding sites (DRE) in its promoter and a renilla reporter gene construct with constitutively active promoter. Kynurenic acid is an endogenous AHR activating ligand and was used to prestimulate test cells prior to testing the antagonistic properties of compounds.
In Vitro Assay 1: Antagonism in Human Cell Line
Firefly luciferase and Renilla activity was determined by the DualGlo Luciferase Assay System (Promega, #2920). Renilla activity was used to assess toxic effects of compounds.

The IC50 is the concentration that inhibits the measured activity by half.

Molecules are shown by their SMILES.

For `Cc1cscc1-c1nc(C(=O)N[C@@H](C)CO)cc(-c2ccc(Cl)cc2)n1` [Example 71, 6-(4-chlorophenyl)-N-[(2S)-1-hydroxypropan-2-yl]-2-(4-methylthiophen-3-yl)pyrimidine-4-carboxamide], the IC50 against Mouse AhR is 4.71 nM; on Human AhR, 3.23 nM.

With `COc1ccncc1-c1nc(C(=O)N[C@@H](C)CO)cc(-c2ccc(Cl)cc2)n1` [Example 80, 6-(4-chlorophenyl)-N-[(2S)-1-hydroxypropan-2-yl]-2-(4-methoxypyridin-3-yl)pyrimidine-4-carboxamide], the values for the IC50 at Mouse AhR and on Human AhR were 30.8 nM and 2.64 nM, respectively.

For `C[C@@H](CO)NC(=O)c1cc(-c2ccc(OC(F)(F)F)cc2)nc(-c2cn[nH]c2)n1` [Example 41, N-[(2S)-1-hydroxypropan-2-yl]-2-(1H-pyrazol-4-yl)-6-[4-(trifluoromethoxy)phenyl]pyrimidine-4-carboxamide], the IC50 against Mouse AhR worked out at 55.8 nM; at Human AhR, 97.6 nM.

On to `C[C@H](CO)NC(=O)c1cc(-c2ccc(Cl)cc2)nc(-c2cnn(C)c2)n1` [Example 12, 6-(4-chlorophenyl)-N-[(2R)-1-hydroxypropan-2-yl]-2-(1-methyl-1H-pyrazol-4-yl)pyrimidine-4-carboxamide], for which the IC50 was 206 nM against Mouse AhR and 73.4 nM on Human AhR.

`C[C@@H](CO)NC(=O)c1cc(-c2ccc(Cl)cc2)nc(-c2cccnc2)n1` [Example 9, 6-(4-chlorophenyl)-N-[(2S)-1-hydroxypropan-2-yl]-2-(pyridin-3-yl)pyrimidine-4-carboxamide]: the results for the half-inhibitory concentration (IC50) against Mouse AhR and on Human AhR were 2.84 nM and 1.1 nM, respectively.

On to `CC(C)(O)CNC(=O)c1cc(-c2ccc(Cl)cc2)nc(-c2ccc(C#N)s2)n1` [Example 47, 6-(4-chlorophenyl)-2-(5-cyanothiophen-2-yl)-N-(2-hydroxy-2-methylpropyl)pyrimidine-4-carboxamide], for which the IC50 was 961 nM on Mouse AhR and 317 nM on Human AhR.

Take `Cn1cc(-c2nc(C(=O)N[C@H]3CCCC[C@@H]3O)cc(-c3ccc(OC(F)(F)F)cc3)n2)cn1` (relative stereo) [Example 92, N-[(trans)-2-hydroxycyclohexyl]-2-(1-methyl-1H-pyrazol-4-yl)-6-[4-(trifluoromethoxy)phenyl]pyrimidine-4-carboxamide]: the half-maximal inhibitory concentration (IC50) worked out at 5.79 nM against Mouse AhR and 4.27 nM at Human AhR.

Take `COc1ccncc1-c1nc(C(=O)N[C@@H](C)CO)cc(-c2ccc(OC(F)(F)F)cc2)n1` [Example 40, N-[(2S)-1-hydroxypropan-2-yl]-2-(4-methoxypyridin-3-yl)-6-[4-(trifluoromethoxy)phenyl]pyrimidine-4-carboxamide]: the IC50 stood at 42.6 nM on Mouse AhR and 4.24 nM against Human AhR.

With `CC(C)Cn1cc(-c2nc(C(=O)N[C@@H](C)CO)cc(-c3ccc(OC(F)(F)F)cc3)n2)cn1` [Example 36, N-[(2S)-1-hydroxypropan-2-yl]-2-[1-(2-methylpropyl)-1H-pyrazol-4-yl]-6-[4-(trifluoromethoxy)phenyl]pyrimidine-4-carboxamide], the IC50 stood at 10000 nM against Mouse AhR and 5220 nM against Human AhR.

In the case of `C[C@@H](CO)NC(=O)c1cc(-c2ccc(Cl)cc2)nc(-c2cnn(C)c2)n1` [Example 11, 6-(4-chlorophenyl)-N-[(2S)-1-hydroxypropan-2-yl]-2-(1-methyl-1H-pyrazol-4-yl)pyrimidine-4-carboxamide], the IC50 on Mouse AhR turned out to be 7.94 nM; at Human AhR it was 3.93 nM.

For the compound `CC(C)(O)CNC(=O)c1cc(-c2ccc(Cl)cc2)nc(-c2cccnc2)n1` [Example 10, 6-(4-chlorophenyl)-N-(2-hydroxy-2-methylpropyl)-2-(pyridin-3-yl)pyrimidine-4-carboxamide], the concentration for half-maximal inhibition (IC50) against Mouse AhR worked out at 8.42 nM; on Human AhR it was 1.38 nM.

As for `CC(C)(O)CNC(=O)c1cc(-c2ccc(OC(F)(F)F)cc2)nc(-c2cn[nH]c2)n1` [Example 20, N-(2-hydroxy-2-methylpropyl)-2-(1H-pyrazol-4-yl)-6-[4-(trifluoromethoxy)phenyl]pyrimidine-4-carboxamide], the results for the IC50 at Mouse AhR and against Human AhR were 354 nM and 717 nM, respectively.

Consider `C[C@@H](CO)NC(=O)c1cc(-c2ccc(OC(F)(F)F)cc2)nc(-c2ccc(Cl)s2)n1` [Example 32, 2-(5-chlorothiophen-2-yl)-N-[(2S)-1-hydroxypropan-2-yl]-6-[4-(trifluoromethoxy)phenyl]pyrimidine-4-carboxamide], for which the half-maximal inhibitory concentration (IC50) against Mouse AhR worked out at 38.8 nM; against Human AhR, 46.2 nM.

At Mouse AhR, `CC(C)[C@@H](CO)NC(=O)c1cc(-c2ccc(OC(F)(F)F)cc2)nc(-c2cnn(C)c2)n1` [Example 116, N-[(2S)-1-hydroxy-3-methylbutan-2-yl]-2-(1-methyl-1H-pyrazol-4-yl)-6-[4-(trifluoromethoxy)phenyl]pyrimidine-4-carboxamide] showed a concentration for half-maximal inhibition (IC50) of 1.97 nM. This lies in the single-digit nanomolar range.

As to `CC(C)(O)CNC(=O)c1cc(-c2ccc(C(F)(F)F)cc2)nc(-c2cccnc2)n1` [Example 7, N-(2-hydroxy-2-methylpropyl)-2-(pyridin-3-yl)-6-[4-(trifluoromethyl)phenyl]pyrimidine-4-carboxamide], on Mouse AhR, inhibition was half-maximal at 12.7 nM (IC50).

The compound `COc1ccncc1-c1nc(C(=O)NCC(C)(C)O)cc(-c2ccc(Cl)cc2)n1` [Example 61, 6-(4-chlorophenyl)-N-(2-hydroxy-2-methylpropyl)-2-(4-methoxypyridin-3-yl)pyrimidine-4-carboxamide] registered an IC50 at Mouse AhR of 4.8 nM. This IC50 lies about 2.6-fold lower than the previous one.

As to `Cc1n[nH]cc1-c1nc(C(=O)NCC(C)(C)O)cc(-c2ccc(Cl)cc2)n1` [Example 65, 6-(4-chlorophenyl)-N-(2-hydroxy-2-methylpropyl)-2-(3-methyl-1H-pyrazol-4-yl)pyrimidine-4-carboxamide], on Human AhR, the half-inhibitory concentration (IC50) turned out to be 355 nM.

In turn, `CC(C)(O)CNC(=O)c1cc(-c2ccc(C(F)F)cc2)nc(-c2cccnc2)n1` [Example 120, 6-[4-(difluoromethyl)phenyl]-N-(2-hydroxy-2-methylpropyl)-2-(pyridin-3-yl)pyrimidine-4-carboxamide] showed an IC50 at Mouse AhR of 10.2 nM.

Consider `C[C@@H](CO)NC(=O)c1cc(-c2ccc(OC(F)(F)F)cc2)nc(-c2ccsc2)n1` [Example 31, N-[(2S)-1-hydroxypropan-2-yl]-2-(thiophen-3-yl)-6-[4-(trifluoromethoxy)phenyl]pyrimidine-4-carboxamide], for which, at Human AhR, the midpoint of inhibition, the IC50, lay at 14.5 nM.

At Human AhR, `CC(C)(O)CNC(=O)c1cc(-c2ccc(Cl)cc2)nc(-c2cc[nH]n2)n1` [Example 58, 6-(4-chlorophenyl)-N-(2-hydroxy-2-methylpropyl)-2-(1H-pyrazol-3-yl)pyrimidine-4-carboxamide] displayed an IC50 of 328 nM. Against the preceding compound, the IC50 is about 23-fold higher.

The record behind these values is patent US11304946B2, “2-hetarylpyrimidine-4-carboxamides as aryl hydrocarbon receptor antagonists” (Bayer Aktiengesellschaft, priority 2017, dated 2022).
